The results in this text go back to patent US20070203244A1, “INHIBITORS OF MEMBRANE TYPE-1 MATRIX METALLOPROTEINASE FOR THE TREATMENT OF INSULIN-DEPENDENT DIABETES MELLITUS” (priority 2006, published 2007).

In one experiment the test system is NOD mice. In words: Adoptively transferred diabetes in NOD mice (IS-CD8+ cells). It is filed as in vivo. As for the experimental part:
IS-CD8^+ cells were labeled with DiI and then injected in NOD mice. In 24 h, the labeled cells with their intra-islet location were counted in the cryostat sections of the entire pancreas. […] IS-CD8^+ cells were injected in NOD mice. […] PBS containing […] DMSO was used as a vehicle control. The onset of diabetes was monitored daily by measuring urine glucose levels with the Diastix reagent strips. Mice with urine glucose levels of ≧2000 mg/dl for 3 consecutive days were considered diabetic. * and **, p=0.02 and p=0.015 by Fisher's test, respectively.
Mice were monitored for 21 days. […] The onset of diabetes was identified by assessing urine glucose levels with Diastix® strips (Bayer). Mice with urine glucose levels of >2000 mg/dl for 3 consecutive days were considered diabetic. […] The level of glucose in the urine closely follows that in the blood (Traisman, H. S., and Greenwood, R. D. (1973)). The measurement of glucose in urine is a widely accepted method to follow the development of diabetes in NOD mice (Pomerleau, D. P., et al. (2005)).

Another experiment has as its target T1, MT1-MMP (Mus musculus, UniProt P53690).
T1 construct: Endogenous MT1-MMP is latent in non-adherent IS-CD8^+ cells; endogenous in cells; host or cells: IS-CD8+ T cells (TGNFC8 clone, NOD mouse), adherent to gelatin
Nature of the experiment: MT1-MMP-dependent MMP-2 activation in adherent IS-CD8+ cells, gelatin zymography. It is filed as cell-based, NOD mouse. As for the experimental part: MT1-MMP-dependent MMP-2 Activation and Gelatin Zymography—IS-CD8^+ cells (1×10^6) were either allowed to adhere for 4 h in serum-free unsupplemented Click's medium to plastic coated with 2% gelatin or kept in solution. Under these experimental conditions, the vast majority of cells became attached to gelatin. In 4 h, media samples (30 μl each) were withdrawn and analyzed by gelatin zymography (Deryugina, E. I., et al. (2001)) to identify the proteolytic activity and the activation status of MMP-2 naturally synthesized by IS-CD8^+ cells. Where indicated, cells were supplemented with external purified pro-MMP-2 (20 ng). Pro-MMP-2 was isolated from a conditioned medium of p2AHT2A72 cells derived from an HT1080 fibrosarcoma cell line sequentially transfected with the E1A and MMP-2 cDNAs (Strongin, A. Y., et al. (1995)).
MT1-MMP-dependent MMP-2 activation and gelatin zymography—IS-CD8^+ cells (1×10^6) were either allowed to adhere for 4 h in serum-free unsupplemented Click's medium to the plastic coated with 2% gelatin or kept in solution. In 18 h, media samples (30 μl each) were withdrawn and analyzed by gelatin zymography (Deryugina, E. I., et al. (2001)) to identify the proteolytic activity and the activation status of MMP-2 naturally synthesized by IS-CD8^+ cells. […] Pro-MMP-2 was isolated from a conditioned medium of p2AHT2A72 cells derived from an HT1080 fibrosarcoma cell line sequentially transfected with the E1A and MMP-2 cDNAs (Strongin, A. Y., et al. (1995)).

With `CC1(C)SCCN(S(=O)(=O)c2ccc(Oc3ccncc3)cc2)[C@H]1C(=O)NO` [AG3340], in the experiment with NOD mice (Example 1: cells co-incubated with AG3340, 1 mg/kg i.p. on days 0, 2, 4, 6, 8, 10), the “delay of the onset of diabetes compared with the control” value is on record as ~2 fold. For the same compound, the “delay of the onset of diabetes compared to the control” value in the experiment on NOD mice (Example 3: 1 mg/kg i.p. 30 min prior to cells, then every other day) is recorded as “approximately 2 fold”. Further, the “activation of MMP-2 in adherent cells” value was “fully blocked” at MT1-MMP (Example 2: AG3340 50 μM, TIMP-1 and TIMP-2 100 ng/ml, 18 h); “fully blocked” at MT1-MMP (Example 3: inhibitors added for 18 h).
